Measured values from patent publication US20050013781A1, “Sunscreen composition” (Playtex Products, Inc., priority 2003, published 2005).

Key:
Assay type in all cases: physicochemical
[1] = Dielectric constant of glycols and derivatives; conditions: for Dielectric Constant, 23° C.: neat glycol/derivative
Text: Determining the polarity of a mixture or an emulsion can be performed in various ways. For example, determining a polarity can include measuring a property that is a function of polarity, such as a dielectric constant. Measurement of a dielectric constant of a liquid can be performed by various sensors, such as immersion probes, flow-through probes, and cup-type probes, attached to various meters, such as those available from the Brookhaven Instruments Corporation of Holtsville, N.Y. (e.g., model BI-870) and the Scientifica Company of Princeton, N.J. (e.g. models 850 and 870). For consistency of comparison, preferably all measurements for a particular filter system are performed at substantially the same sample temperature, e.g., by use of a water bath. Generally, the measured dielectric constant of a substance will increase at lower temperatures and decrease at higher temperatures.
Dielectric Constants of the following glycols and their derivatives have been measured (see Table 1).

[2] = Photostability on VITRO-SKIN: retained absorbance and critical wavelength before and after irradiation
Method: Referring to Table 7 above, the compositions were applied on Vitro-Skin (0.6 mg/cm2) and irradiated. The irradiation dose was 5 MEDs repeated 4 times (=20 MEDs total). Retained Absorbance at 370 nm (UVA photostability, FIG. 1), 310 nm (UVB photostability, FIG. 2) and critical wavelength (Table 8, FIG. 3) were determined for each composition before and after each irradiation dose in order to determine their photostability.
The resulting sunscreen oil phases were tested for photostability by measuring absorbance on a Labsphere UV-1000S Ultraviolet Transmittance Analyzer before and after irradiation with a Solar Light Company model 16S solar simulator (equipped with a WG 320 filter to transmit radiation greater than 290 nm) in 5 MED (105 mJ/cm^2) increments up to 20 MED cumulative dose. Output was monitored by a PMA 2105 UV-B DCS Detector (biologically weighted) and controlled by a PMA 2100 Automatic Dose Controller (Solar Light Co.).
A synthetic skin substrate was used for testing the sunscreen compositions (VITRO-SKIN substrate by IMS, Inc. of Milford, Conn.). To prepare the substrate, a 300 g solution of 44 g of glycerin and 256 g of deionized water was added to an IMS hydrating chamber, and a sheet of VITRO-SKIN was placed in the hydrating chamber for approx. 16 hours. Several 6.5 cm squares were cut from the hydrated VITRO-SKIN and used for absorbance measurements.
To prepare slides for testing, sunscreen composition is drawn or placed into a pipette. The test composition is uniformly applied to VITRO-SKIN square (0.6 mg/cm^2). This application dose of the oil phase, 0.6 mg/cm^2, corresponds to the application dose of 2 mg/cm^2 of sunscreen formulation (typically the concentration of the oil phase in the sunscreen formulation is about 30%). The VITRO-SKIN square was then placed on a foam block, and the test material was spread by finger (covered with a latex glove or finger cot), first in a circular motion, then by a side-to-side motion during which the VITRO-SKIN is deformed by the pressure. The square was then mounted in a slide holder and allowed to dry for about 15 to 20 minutes.
To test photostability, a slide was positioned on the UV transmittance analyzer using registration marks, and a scan of 1 sq. cm spot on the slide was performed. The slide was then transferred to a holder placed adjacent to the solar simulator and, using a calipers, was positioned such that the beam of UV radiation exiting the solar simulator illuminated the same 1 cm spot on the slide. The following software settings were used: UV-B—290-320 nm; UV-A—320-400 nm; SPF—290-400 nm; Spectral Irradiance; Noon, July 3, Albuquerque, N.Mex.; SPF Spectral Irradiance and Erythermal Effectiveness settings as set by manufacturer. Following an exposure of 5 MED, the slide was again placed in position on the UV transmittance analyzer, and a scan of the exposed spot was performed. The procedure was repeated on the same 1 cm spot on the slide until the desired total radiation dosage was achieved.
The above compositions were applied on Vitro-Skin (0.6 mg/cm2) and irradiated. The irradiation dose was 5 MEDs repeated 4 times (=20 MEDs total). Retained Absorbance at 370 nm (Table 11 and FIG. 4), 310 nm (Table 12) and critical wavelength (Table 13 and FIG. 5) were determined for each composition before and after each irradiation dose in order to determine their photostability. The methodology is described above in more detail in Example 3.

[3] = DOE (central composite design) photostability of model oil phases: retained absorbance after 15 MED; conditions: response surface analysis of DOE 1-3
Method: In order to determine the impact of the concentration of avobenzone, from 0.04842 M to 0.0968 M (Factor 1) and different molar ratios of 1,2-octanediol (caprylyl glycol) to avobenzone, from 0 to 10 (Factor 2), on the photostability of avobenzone in the different sunscreen compositions, numerous studies were conducted. Three designs of experiments that represent central composite designs (CCDs) and D.O.E. Fusion 7.2.2 software were employed.
The CCD type of design was used to determine the effect of two factors: concentration of Avobenzone and the molar ratio 1,2-octanediol/avobenzone on the photostability of avobenzone in the different sunscreen compositions. Two responses were measured: the retained absorbance (%) of a sunscreen composition at 370 nm (UVA) and the same measurement at 310 nm (UVB) after irradiation dose of 15 MED.
The same order of experiments was run in the different set-ups. As a result, two categorical factors were added: Oxybenzone (absent or present at a predetermined constant level) and Octocrylene (absent or present at a predetermined constant level). Table 16 presents the three set-ups as well as the numbers of the formulation tables and response tables.
Response surface equalization were fitted to both responses (retained absorbance at 370 nm and retained absorbance at 310 nm, both after an irradiation dose of 15 MED). The significant factors were selected.

Compound | Dielectric Constant, 23° C. [1] | photostability of UVB sunscreens at 310 nm (in words) [2] | photostability of avobenzone at 370 nm (in words) [2] | effect on retained absorbance at 310 nm after 15 MED (in words) [3] | effect on retained absorbance at 370 nm after 15 MED (in words) [3] | other results
CCOCCOCCO [Ethoxydiglycol, Diethylene glycol monoethyl ether] | 13.69 | can improve the photostability of UVB sunscreens at 310 nm | without the significant improvement of the photostability of avobenzone at 370 nm | – | – | –
CCCCC(CC)COC(=O)C(C#N)=C(c1ccccc1)c1ccccc1 (centres unmarked) [Octocrylene, 2-ethylhexyl-2-cyano-3,3 diphenylacrylate] | – | – | – | gives mild a gain in absorbency | helps the absorbance retention 370 nm, but not as significant as in the case of oxybenzone | –
CCCC(O)CO (centres unmarked) [Pentylene Glycol, 1,2-pentanediol] | 18.2 | can improve the photostability of UVB sunscreens at 310 nm | without the significant improvement of the photostability of avobenzone at 370 nm | – | – | –
Polyethylene Glycol-7 Methyl Ether | 13.1 | – | – | – | – | –
CCCCOCCOCCO [Diethylene Glycol Monobutyl Ether] | 10.59 | – | – | – | – | –
COc1ccc(C(=O)c2ccccc2)c(O)c1 [Oxybenzone, oxybenzone] | – | – | – | helps retention at 310 nm | gives the highest boost in retain absorbance at 370 nm and 15 MED exposure | –
CCCCCCC(O)CO (centres unmarked) [1,2-Octanediol] | – | – | – | significantly improves the photostability of sunscreens at 310 nm | significantly improves the photostability | Dielectric Constant ([1]; measured at 30° C., solid at room temperature (23 C.)): 10.61; photostabilization of avobenzone (in words) [2]: most effectively stabilizes avobenzone
CCCCC(O)CO (centres unmarked) [1,2-Hexanediol] | 15.1 | can improve the photostability of UVB sunscreens at 310 nm | without the significant improvement of the photostability of avobenzone at 370 nm | – | – | –
CCC(=O)OCCCCO [Butylene Glycol Monopropionate] | 11.72 | – | – | – | – | –
